Reference: patent US20080241177A1 (priority 2003, published 2008)
“Also recorded” adds a separate entry of the source.

How the values were obtained:
[1] = Delayed type hypersensitivity (DTH) testing; assay type: in vivo, human; conditions: for Induration area, DTH testing: 48 hours following intradermal injection of individual peptide, after four vaccinations; for Number of patients with a peptide-specific DTH response: six trial patients who underwent DTH testing
Method: Delayed type hypersensitivity (DTH) testing was carried out 1 month after the final vaccination. […] Induration of […]10 mm^2 at 48 hours after injection was considered positive.

[2] = system: serum antibodies; experiment: ELISA for serum antibodies specific for the individual vaccine peptides, human sera; conditions: for Number of individuals with a humoral response to the vaccine peptides, Cancer controls n = 54 / Percent of individuals with a humoral response to the vaccine peptides, Cancer controls n = 54: non-trial cancer controls, sera 1:25 dilution; for Number of individuals with a humoral response to the vaccine peptides, Trial subjects n = 6 / Percent of individuals with a humoral response to the vaccine peptides, Trial subjects n = 6: trial subjects who completed four vaccinations, detectable response at any time point considered positive
[3] = system: serum antibodies; experiment: Immunization of sheep with the vaccine, anti-peptide ELISA; conditions: for Response higher in the first immunized sheep, on average: first versus second sheep; for Polyclonal sera with reactivity to peptide obtained from immunized sheep: 200 μg peptide mixture in CpG DNA adjuvant, prime and boost; for Response to peptide using the polyclonal sheep sera or rabbit sera: polyclonal sheep sera (FIG. 2A) or rabbit sera (data not shown)
[4] = normal controls, n = 30, not vaccinated

Substance | Induration area, DTH testing ([1]; patient 012) | Induration area, DTH testing ([1]; patient 014) | Induration area, DTH testing ([1]; patient 015) | Induration area, DTH testing ([1]; patient 016) | Induration area, DTH testing ([1]; patient 017) | Induration area, DTH testing ([1]; patient 018) | Number of patients with a peptide-specific DTH response [1] | Number of individuals with a humoral response to the vaccine peptides, Cancer controls n = 54 [2] | Number of individuals with a humoral response to the vaccine peptides, Normal controls n = 30 [2, 4] | Number of individuals with a humoral response to the vaccine peptides, Trial subjects n = 6 [2] | Response higher in the first immunized sheep, on average [3] | Polyclonal sera with reactivity to peptide obtained from immunized sheep ([3]; two sheep) | Response to peptide using the polyclonal sheep sera or rabbit sera [3] | other results
H-AVYYCLLQALKHWGQGT-OH [Peptide 2] | 189 mm^2 | 20 mm^2 | 86 mm^2 | Neg (Neg indicates that induration (if any) was less than 10 mm^2) | 71 mm^2 | 38 mm^2 | five | 1 | 0 | 4 | 50% | obtained from both sheep |  | Percent of individuals with a humoral response to the vaccine peptides, Cancer controls n = 54 [2]: 1.9%; Isotype of peptide-specific serum antibodies ([2]; subject 012): IgG1; Isotype of peptide-specific serum antibodies ([2]; subject 014): IgG1 and IgG3; Isotype of peptide-specific serum antibodies ([2]; subject 015): IgG1 and IgG3; Isotype of peptide-specific serum antibodies ([2]; subject 016): IgG4; Percent of individuals with a humoral response to the vaccine peptides, Trial subjects n = 6 [2]: 66.7%; Number of individuals with a humoral response to the vaccine peptides, Trial subjects n = 6 ([2]; listed as peptide 2): four of the six
H-PKLLIYKASSLESGVPSR-OH [HIV-L2, reference compound] | Neg (Neg indicates that induration (if any) was less than 10 mm^2) | Neg (Neg indicates that induration (if any) was less than 10 mm^2) | Neg (Neg indicates that induration (if any) was less than 10 mm^2) | Neg (Neg indicates that induration (if any) was less than 10 mm^2) | Neg (Neg indicates that induration (if any) was less than 10 mm^2) | Neg (Neg indicates that induration (if any) was less than 10 mm^2) |  |  |  |  |  |  |  | 
H-GVYYCMQGLQTPYTFGEGT -OH (H-GVYYCMQGLQTPYTFGEGT-OH) [Peptide 8] | 113 mm^2 | Neg (Neg indicates that induration (if any) was less than 10 mm^2) | 38 mm^2 | Neg (Neg indicates that induration (if any) was less than 10 mm^2) | 44 mm^2 | Neg (Neg indicates that induration (if any) was less than 10 mm^2) | three | 0 | 0 | 2 |  | obtained from both sheep |  | Isotype of peptide-specific serum antibodies ([2]; subject 012): undetectable; Isotype of peptide-specific serum antibodies ([2]; subject 015): undetectable; Percent of individuals with a humoral response to the vaccine peptides, Trial subjects n = 6 [2]: 33.3%; Number of individuals with a humoral response to the vaccine peptides, Trial subjects n = 6 ([2]; listed as peptide 8): two; Serum antibody titres, first versus second immunized sheep ([3]; two sheep): equivalent
H-YFCSRVKAGGPDYWGQGT-OH [Peptide 6] |  |  |  |  |  |  | responses were observed in at least one individual for all of the peptides, except for peptides 3 and 6 | 0 | 0 | 0 | 50% | obtained from both sheep | positive responses | Number of individuals with a humoral response to the vaccine peptides, Trial subjects n = 6 ([2]; listed as peptide 6): No patient demonstrated a response
H-KLLIHWASTRESGVPDR-OH [Peptide 3] |  |  |  |  |  |  | responses were observed in at least one individual for all of the peptides, except for peptides 3 and 6 | 0 | 1 | 0 |  | neither animal; also recorded: could not be generated | positive responses | Percent of individuals with a humoral response to the vaccine peptides, Normal controls n = 30 [2, 4]: 3.3%; Number of individuals with a humoral response to the vaccine peptides, Trial subjects n = 6 ([2]; listed as peptide 3): No patient demonstrated a response
H-AGLFCQQYYTTPLTFGGGT-OH [Peptide 4] | Neg (Neg indicates that induration (if any) was less than 10 mm^2) | Neg (Neg indicates that induration (if any) was less than 10 mm^2) | 13 mm^2 | Neg (Neg indicates that induration (if any) was less than 10 mm^2) | Neg (Neg indicates that induration (if any) was less than 10 mm^2) | Neg (Neg indicates that induration (if any) was less than 10 mm^2) | one | 0 | 0 | 0 | 50% | obtained from both sheep | positive responses | Number of individuals with a humoral response to the vaccine peptides, Trial subjects n = 6 ([2]; listed as peptide 4): No patient demonstrated a response
H-LLIYLGSTRASGVPDR-OH [Peptide 7] | 16 mm^2 | Neg (Neg indicates that induration (if any) was less than 10 mm^2) | Neg (Neg indicates that induration (if any) was less than 10 mm^2) | 39 mm^2 | Neg (Neg indicates that induration (if any) was less than 10 mm^2) | Neg (Neg indicates that induration (if any) was less than 10 mm^2) | two | 1 | 0 | 0 |  | neither animal; also recorded: could not be generated | positive responses | Percent of individuals with a humoral response to the vaccine peptides, Cancer controls n = 54 [2]: 1.9%; Number of individuals with a humoral response to the vaccine peptides, Trial subjects n = 6 ([2]; listed as peptide 7): No patient demonstrated a response
